Experimental data from PubChem BioAssay (NCI).
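GI50 is the concentration that inhibits growth by half. TGI is the concentration that stops growth completely.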

Tests used:
Assay in all cases: inhibition of tumour cell growth, NCI panel, 384-well format
786-0 renal = test system: 786-0 renal
A498 renal = test system: A498 renal
A549 NSCLC = test system: A549 NSCLC
ACHN renal = test system: ACHN renal
BT-549 breast = test system: BT-549 breast
CAKI-1 renal = test system: CAKI-1 renal
CCRF-CEM leukemia = test system: CCRF-CEM leukemia
COLO 205 colon = test system: COLO 205 colon
DU-145 prostate = test system: DU-145 prostate
EKVX NSCLC = test system: EKVX NSCLC
HCC-2998 colon = test system: HCC-2998 colon
HCT-116 colon = test system: HCT-116 colon
HCT-15 colon = test system: HCT-15 colon
HL-60(TB) leukemia = test system: HL-60(TB) leukemia
HOP-62 NSCLC = test system: HOP-62 NSCLC
HOP-92 NSCLC = test system: HOP-92 NSCLC
HS 578T breast = test system: HS 578T breast
HT29 colon = test system: HT29 colon
IGROV1 ovarian = test system: IGROV1 ovarian
K-562 leukemia = test system: K-562 leukemia
KM12 colon = test system: KM12 colon
LOX IMVI melanoma = test system: LOX IMVI melanoma
M14 melanoma = test system: M14 melanoma
MALME-3M melanoma = test system: MALME-3M melanoma
MCF7 breast = test system: MCF7 breast
MDA-MB-231 breast = test system: MDA-MB-231 breast
MDA-MB-435 melanoma = test system: MDA-MB-435 melanoma
MDA-MB-468 breast = test system: MDA-MB-468 breast
MOLT-4 leukemia = test system: MOLT-4 leukemia
NCI-H226 lung = test system: NCI-H226 lung
NCI-H23 lung = test system: NCI-H23 lung
NCI-H322M lung = test system: NCI-H322M lung
NCI-H460 NSCLC = test system: NCI-H460 NSCLC
NCI-H522 lung = test system: NCI-H522 lung
NCI/ADR-RES ovarian = test system: NCI/ADR-RES ovarian
OVCAR-3 ovarian = test system: OVCAR-3 ovarian
OVCAR-4 ovarian = test system: OVCAR-4 ovarian
OVCAR-8 ovarian = test system: OVCAR-8 ovarian
PC-3 prostate = test system: PC-3 prostate
RPMI-8226 leukemia = test system: RPMI-8226 leukemia
RXF 393 renal = test system: RXF 393 renal
SF-268 CNS = test system: SF-268 CNS
SF-295 CNS = test system: SF-295 CNS
SF-539 CNS = test system: SF-539 CNS
SK-MEL-28 melanoma = test system: SK-MEL-28 melanoma
SK-MEL-5 melanoma = test system: SK-MEL-5 melanoma
SK-OV-3 ovarian = test system: SK-OV-3 ovarian
SN12C renal = test system: SN12C renal
SNB-19 CNS = test system: SNB-19 CNS
SNB-75 CNS = test system: SNB-75 CNS
SR leukemia = test system: SR leukemia
SW-620 colon = test system: SW-620 colon
T-47D breast = test system: T-47D breast
TK-10 renal = test system: TK-10 renal
U251 glioblastoma = test system: U251 glioblastoma
UACC-257 melanoma = test system: UACC-257 melanoma
UACC-62 melanoma = test system: UACC-62 melanoma
UO-31 renal = test system: UO-31 renal

Structure (SMILES): C[C@@H]1COCCN1c1cc(C2([S@](C)(=N)=O)CC2)nc(-c2ccnc3[nH]ccc23)n1
- GI50 ([…]-0 renal): 0.718 µM
- TGI (786-0 renal): 4.25 µM
- GI50 (A498 renal): 0.398 µM
- TGI (A498 renal): 1.95 µM
- GI50 (A549 NSCLC): 3.1 µM
- TGI (A549 NSCLC): 21.2 µM
- GI50 (ACHN renal): 0.826 µM
- TGI (ACHN renal): 6.37 µM
- GI50 (BT-549 breast): 0.573 µM
- TGI (BT-549 breast): 3.51 µM
- GI50 (CAKI-1 renal): 2.74 µM
- TGI (CAKI-1 renal): 22.8 µM
- GI50 (CCRF-CEM leukemia): 0.337 µM
- TGI (CCRF-CEM leukemia): 1.4 µM
- GI50 (COLO 205 colon): 7.72 µM
- TGI (COLO 205 colon): 83.7 µM
- GI50 (DU-145 prostate): 2.8 µM
- TGI (DU-145 prostate): > 100 µM
- GI50 (EKVX NSCLC): 6.53 µM
- TGI (EKVX NSCLC): 59.9 µM
- GI50 (HCC-2998 colon): 0.231 µM
- TGI (HCC-2998 colon): 1.6 µM
- GI50 (HCT-116 colon): 1.39 µM
- TGI (HCT-116 colon): 14.6 µM
- GI50 (HCT-15 colon): 1.9 µM
- TGI (HCT-15 colon): 56.1 µM
- GI50 (HL-60(TB) leukemia): 0.666 µM
- TGI (HL-60(TB) leukemia): 1.91 µM
- GI50 (HOP-62 NSCLC): 1.1 µM
- TGI (HOP-62 NSCLC): 4.39 µM
- GI50 (HOP-92 NSCLC): 1.16 µM
- TGI (HOP-92 NSCLC): 6.77 µM
- GI50 (HS 578T breast): 0.336 µM
- TGI (HS 578T breast): 1.72 µM
- GI50 (HT29 colon): 3.17 µM
- TGI (HT29 colon): 9.92 µM
- GI50 (IGROV1 ovarian): 1.87 µM
- TGI (IGROV1 ovarian): 21.6 µM
- GI50 (K-562 leukemia): 1.63 µM
- TGI (K-562 leukemia): 3.7 µM
- GI50 (KM12 colon): 0.734 µM
- TGI (KM12 colon): 16.5 µM
- GI50 (LOX IMVI melanoma): 2.34 µM
- TGI (LOX IMVI melanoma): 12.6 µM
- GI50 (M14 melanoma): 0.896 µM
- TGI (M14 melanoma): 3.26 µM
- GI50 (MALME-3M melanoma): 3.87 µM
- TGI (MALME-3M melanoma): 18 µM
- GI50 (MCF7 breast): 0.431 µM
- TGI (MCF7 breast): > 100 µM
- GI50 (MDA-MB-231 breast): 6.1 µM
- TGI (MDA-MB-231 breast): > 100 µM
- GI50 (MDA-MB-435 melanoma): 3.46 µM
- TGI (MDA-MB-435 melanoma): > 100 µM
- GI50 (MDA-MB-468 breast): 2.9 µM
- TGI (MDA-MB-468 breast): 15.5 µM
- GI50 (MOLT-4 leukemia): 0.342 µM
- TGI (MOLT-4 leukemia): 1.52 µM
- GI50 (NCI-H226 lung): 16.3 µM
- TGI (NCI-H226 lung): 59.3 µM
- GI50 (NCI-H23 lung): 0.792 µM
- TGI (NCI-H23 lung): 2.4 µM
- GI50 (NCI-H322M lung): 0.815 µM
- TGI (NCI-H322M lung): 4.99 µM
- GI50 (NCI-H460 NSCLC): 0.455 µM
- TGI (NCI-H460 NSCLC): 8.99 µM
- GI50 (NCI-H522 lung): 12.8 µM
- TGI (NCI-H522 lung): 81.6 µM
- GI50 (NCI/ADR-RES ovarian): 25.4 µM
- TGI (NCI/ADR-RES ovarian): > 100 µM
- GI50 (OVCAR-3 ovarian): 1.94 µM
- TGI (OVCAR-3 ovarian): 23.8 µM
- GI50 (OVCAR-4 ovarian): 2.03 µM
- TGI (OVCAR-4 ovarian): 31 µM
- GI50 (OVCAR-8 ovarian): 3.77 µM
- TGI (OVCAR-8 ovarian): 16.3 µM
- GI50 (PC-3 prostate): 6.97 µM
- TGI (PC-3 prostate): > 100 µM
- GI50 (RPMI-8226 leukemia): 0.694 µM
- TGI (RPMI-8226 leukemia): 2.26 µM
- GI50 (RXF 393 renal): 1.28 µM
- TGI (RXF 393 renal): 3.93 µM
- GI50 (SF-268 CNS): 3.35 µM
- TGI (SF-268 CNS): 46.3 µM
- GI50 (SF-295 CNS): 1.97 µM
- TGI (SF-295 CNS): 7.74 µM
- GI50 (SF-539 CNS): 0.64 µM
- TGI (SF-539 CNS): 2.69 µM
- GI50 (SK-MEL-28 melanoma): 18.3 µM
- TGI (SK-MEL-28 melanoma): 81.8 µM
- GI50 (SK-MEL-5 melanoma): 5.24 µM
- TGI (SK-MEL-5 melanoma): 18.7 µM
- GI50 (SK-OV-3 ovarian): 1.59 µM
- TGI (SK-OV-3 ovarian): 10.5 µM
- GI50 (SN12C renal): 4.38 µM
- TGI (SN12C renal): 55.9 µM
- GI50 (SNB-19 CNS): 4.39 µM
- TGI (SNB-19 CNS): 43.4 µM
- GI50 (SNB-75 CNS): 3.51 µM
- TGI (SNB-75 CNS): > 100 µM
- GI50 (SR leukemia): 0.0322 µM
- TGI (SR leukemia): 0.125 µM
- GI50 (SW-620 colon): 4.88 µM
- TGI (SW-620 colon): > 100 µM
- GI50 (T-47D breast): 18.7 µM
- TGI (T-47D breast): > 100 µM
- GI50 (TK-10 renal): 0.412 µM
- TGI (TK-10 renal): 2.42 µM
- GI50 (U251 glioblastoma): 3 µM
- TGI (U251 glioblastoma): 41.8 µM
- GI50 (UACC-257 melanoma): 22.4 µM
- TGI (UACC-257 melanoma): > 100 µM
- GI50 (UACC-62 melanoma): 2.43 µM
- TGI (UACC-62 melanoma): 36.8 µM
- GI50 (UO-31 renal): 2.82 µM
- TGI (UO-31 renal): 25.5 µM
